In patent publication US20160333419A1, “GENE SIGNATURES ASSOCIATED WITH SENSITIVITY TO MDM2 INHIBITORS” (DAIICHI SANKYO COMPANY, LIMITED, priority 2014, published 2016):

Key:
Experiment in all cases: OncoPanel cytotoxicity assay
Assay type in all cases: cell-based
Conditions in all cases: Homo sapiens, 72 hour incubation
BT-483 = test system: BT-483
In short: (§1)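 Cells grown in RPMI 1640 with 10% FBS (or a special medium) at 37° C, 5% CO2 were treated 24 hours after seeding for 72 hours with 10 concentrations (3.16-fold dilutions, 0.1% DMSO final). Nuclei were dye-stained and imaged; IC50 was fit from percent of control relative cell count.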

IMR-32 = test system: IMR-32
In short: as §1

MDA-MB-175-VII = test system: MDA-MB-175-VII
In short: as §1

T84 = test system: T84
In short: as §1

VCaP = test system: VCaP
In short: as §1

WM-115 = test system: WM-115
In short: as §1

ZR-75-1 = test system: ZR-75-1
In short: as §1

COR-L23 = test system: COR-L23
In short: as §1

OE19 = test system: OE19
In short: as §1

OE33 = test system: OE33
In short: as §1

Structure (SMILES) | IC50 (BT-483) | IC50 (IMR-32) | IC50 (MDA-MB-175-VII) | IC50 (T84) | IC50 (VCaP) | IC50 (WM-115) | IC50 (ZR-75-1) | IC50 (COR-L23) | IC50 (OE19) | IC50 (OE33)
CC[C@@H]1CNC2(CC2)CN1C(=O)[C@@H]1C[C@@H](F)CN1C(=O)C1=C(C(C)C)N2C(=N[C@@](C)(c3ccc(Cl)nc3)[C@H]2c2ccc(Cl)c(F)c2)S1 [Compound A, [(5R,6S)-5-(4-Chloro-3-fluorophenyl)-6-(6-chloropyridin-3-yl)-6-methyl-3-(propan-2-yl)-5,6-dihydroimidazo[2,1-b][1,3]thiazol-2-yl][(2S,4R)-2-{[(6R)-6-ethyl-4,7-diazaspiro[2.5]oct-7-yl]carbonyl}-4-fluoropyrrolidin-1-yl]methanone] | 13.2 µM | 0.828 µM | > 40 µM | > 40 µM | > 40 µM | 0.564 µM | 1.5 µM |  |  | 
CC1(C)CCC2(CC1)N[C@@H](C(=O)N[C@@H]1CC[C@@H](C(N)=O)OC1)[C@H](c1ccnc(Cl)c1F)[C@]21C(=O)Nc2cc(Cl)ccc21 [Compound B, (3′R,4′S,5′R)—N-[(3R,6S)-6-carbamoyltetrahydro-2H-pyran-3-yl]-6″-chloro-4′-(2-chloro-3-fluoropyridin-4-yl)-4,4-dimethyl-2″-oxo-1″,2″-dihydrodispiro[cyclohexane-1,2′-pyrrolidine-3′,3″-indole]-5′-carboxamide] |  |  |  |  |  |  |  | 8.98 µM | > 10 µM | 7.58 µM
